Here are results for 25 compounds from patent publication US5140040A, “1-aminomethyl-1,2,3,4-tetrahydronaphthalenes” (Abbott Laboratories, priority 1991, dated 1992).

Structures can show the parent of a compound that is named as a salt.

This experiment has as its target alpha-2-receptor. Kind of experiment: Radioligand binding, alpha-2 adrenoceptor, rat cerebral cortices, [^3 H]-rauwolscine. The following applies: for Ki: rat cerebral cortices, [^3 H]-rauwolscine; for alpha-2 - Selectivity Ki alpha-1/Ki alpha 2: ratio of Ki alpha-1 to Ki alpha-2. As for the experimental part: The compounds were assessed for alpha-adrenergic receptor subtype selectivity by use of radioligand binding techniques as described previously (DeBernardis et.al. J. Med. Chem. 28, 1398 (1985)).

As a reminder, the Ki is the dissociation constant of the complex between target and ligand, obtained from inhibition or displacement. Low values mean a stronger hold on the target, high ones a looser hold on the target.

On to `COc1ccc2c(c1OC)CCCC2CN(C)CCc1cccs1` (centres unmarked) [Example 86, 1-((N-Methylamino)methyl-N-(2-(2-thienyl)ethyl))-5,6-dimethoxy tetralin hydrochloride], for which the affinity, expressed as Ki, was 3 nM and the “alpha-2 - Selectivity Ki alpha-1/Ki alpha 2” value is reported as 165.

For `CN(CCc1cccc(N)c1)CC1CCCc2cc(O)ccc21` (centres unmarked) [Example 68, 1-((N-Methylamino)methyl N-(2-(m-aminophenyl)ethyl))-6-hydroxy tetralin dihydrobromide], the Ki is 6 nM and the “alpha-2 - Selectivity Ki alpha-1/Ki alpha 2” value stood at 196.

For the compound `CN(CCc1cccc(F)c1)CC1CCCc2ccccc21` (centres unmarked) [Example 70, 1-((N-Methylamino)methyl-N-(2-(m-fluorophenyl)ethyl))-tetralin hydrochloride], the Ki is 5 nM and the “alpha-2 - Selectivity Ki alpha-1/Ki alpha 2” value is on record as 105.

As for `CN(CCc1cccs1)CC1CCCc2ccccc21` (centres unmarked) [Example 22, 1-((N-Methylamino)methyl-N-(2-(2-thienyl)ethyl)) tetralin hydrochloride], the Ki worked out at 1.3 nM and the “alpha-2 - Selectivity Ki alpha-1/Ki alpha 2” value is 535.

Take `CN(CCc1cccs1)CC1CCCc2cc(O)ccc21` (centres unmarked) [Example 7, 1-((N-Methylamino)methyl-N(2-(2-thienyl)ethyl))-6-hydroxy tetralin hydrochloride]: the Ki worked out at 1.6 nM and the “alpha-2 - Selectivity Ki alpha-1/Ki alpha 2” value is on record as 353.

`c1csc(C2CCN(CC3CCCc4c3ccc3c4OCO3)C2)c1` (centres unmarked) [Example 144, 5,6-Methylenedioxy-1-(3-(2-thienyl)pyrrolidino-1-methyl) tetralin methanesulfonate]: affinity was put at a Ki of 1.2 nM and the “alpha-2 - Selectivity Ki alpha-1/Ki alpha 2” value is given as 204.

With `CCCN(CCc1cccs1)CC1CCCc2cc(OC)ccc21` (centres unmarked) [Example 58, 1-((N propylamino)methyl)-N-(2-(2-thienyl)ethyl))-6-methoxy tetralin hydrochloride], the Ki stood at 18 nM and the “alpha-2 - Selectivity Ki alpha-1/Ki alpha 2” value came out at 102.

Consider `COc1ccc(C)c2c1CCCC2CN(C)CCc1cccs1` (centres unmarked) [Example 36, 1-(N-Methylamino)methyl-N-(2-(2-thienyl)ethyl))-5-methoxy-8-methyl tetralin hydrochloride], for which affinity was put at a Ki of 6.9 nM and the “alpha-2 - Selectivity Ki alpha-1/Ki alpha 2” value is 95.

In the case of `COc1ccc2c(c1)CCCC2CN(C)CCc1cccc(O)c1` (centres unmarked) [Example 83, 1-((N-Methylamino)methyl-N-(2-(m-hydroxyphenyl)ethyl))-6-methoxy tetralin hydrochloride], the affinity corresponds to a Ki of 8 nM and the “alpha-2 - Selectivity Ki alpha-1/Ki alpha 2” value is reported as 119.

Take `Nc1ccc2c(c1)CCCC2CN1CCC(c2ccccc2)C1` (centres unmarked) [Example 156, 6-Amino-1-(3-phenylpyrrolidino-1-methyl) tetralin dihydrochloride]: affinity was put at a Ki of 6 nM and the “alpha-2 - Selectivity Ki alpha-1/Ki alpha 2” value is 21.

On to `COc1cc2c(cc1F)C(CN(C)CCc1ccco1)CCC2` (centres unmarked) [Example 141, 1-((N-methylamino)methyl-N-(2-(2-furyl)ethyl))-6-methoxy-7-fluoro tetralin methanesulfonate], for which the affinity corresponds to a Ki of 4.8 nM and the “alpha-2 - Selectivity Ki alpha-1/Ki alpha 2” value amounted to 183.

For `CCN(CCc1cccs1)CC1CCCc2c1ccc1c2OCO1` (centres unmarked) [Example 164, 1-(N-Ethylamino)methyl-N-(2-(2-thienyl)ethyl))-5,6-methylenedioxy tetralin hydrochloride], the inhibition constant Ki is 3.7 nM and the “alpha-2 - Selectivity Ki alpha-1/Ki alpha 2” value was found to be 258.

Consider `COc1ccc2c(c1)CCC2CN1CCC(c2cccc(F)c2)C1` (centres unmarked) [Example 153, 5-Methoxy-1-(3-(m-fluorophenyl)pyrrolidino-1-methyl) indane hydrochloride], for which the Ki was 8.6 nM and the “alpha-2 - Selectivity Ki alpha-1/Ki alpha 2” value stood at 7.

For `COc1ccc2c(c1)CCCC2CN(C)CCc1cccc(N)c1` (centres unmarked) [Example 67, 1 ((N-Methylamino)methyl-N-(2-(maminophenyl)ethyl))-6-methoxy tetralin dihydrochloride], the inhibitory constant (Ki) was found to be 6 nM and the “alpha-2 - Selectivity Ki alpha-1/Ki alpha 2” value worked out at 195.

Take `CCN(CCc1ccco1)CC1CCCc2cc(OC)ccc21` (centres unmarked) [Example 43, 1-((N-Ethylamino)methyl-N-(2-(2-furyl)ethyl))-6-methoxy tetralin hydrochloride]: the inhibition constant Ki was determined as 6 nM and the “alpha-2 - Selectivity Ki alpha-1/Ki alpha 2” value amounted to 233.

As for `COc1ccc2c(c1)CCCC2CN(C)CCC1CCCC1` (centres unmarked) [Example 6f, 1-((N-methylamino)methyl N-(2-(cyclopentyl)ethyl)) 6-methoxy tetralin hydrochloride], the inhibition constant Ki stood at 6.5 nM and the “alpha-2 - Selectivity Ki alpha-1/Ki alpha 2” value came out at 332.

On to `COc1ccc2c(c1)CCCC2CN1CCC(c2ccccc2)C1` (centres unmarked) [Example 121, 6-Methoxy-1-(3-phenylpyrrolidino-1-methyl) tetralin hydrochloride], for which the inhibition constant Ki was 1 nM and the “alpha-2 - Selectivity Ki alpha-1/Ki alpha 2” value amounted to 95.

As for `CN(CCc1ccccc1)CC1CCCc2ccccc21` (centres unmarked) [Example 88, 1-(N-Methylamino)methyl-N-(2-phenethyl)) tetralin hydrochloride], the Ki stood at 2 nM and the “alpha-2 - Selectivity Ki alpha-1/Ki alpha 2” value was found to be 158.

Consider `COc1ccc2c(c1)CCCC2CN(C)CCC1CCCS1` (centres unmarked) [Example 6h, 1-((N-methylamino)methyl-N-(2-(2-tetrahydrothienyl)ethyl))-6-methoxy tetralin hydrochloride], for which the Ki came out at 3.5 nM and the “alpha-2 - Selectivity Ki alpha-1/Ki alpha 2” value is 430.

With `COc1ccc2c(c1)CCCC2CN(C)CCc1cccn1C` (centres unmarked) [Example 12, 1-((N-Methylamino)methyl-N-(2-(N-methyl2-pyrrolyl)-ethyl))-6-methoxy tetralin fumarate], the inhibition constant Ki was 5 nM and the “alpha-2 - Selectivity Ki alpha-1/Ki alpha 2” value is given as 242.

Turning to `COc1cc2c(c(OC)c1)C(CN(C)CCc1cccs1)CCC2` (centres unmarked) [Example 26, 1-((N-Methylamino)methyl-N-(2-(2-thienyl)ethyl))-6,8-dimethoxy tetralin hydrochloride], the inhibition constant Ki amounted to 0.6 nM and the “alpha-2 - Selectivity Ki alpha-1/Ki alpha 2” value was 292.

In the case of `COc1cccc2c1CCCC2CN1CCC(c2cccs2)C1` (centres unmarked) [Example 146, 5-Methoxy1-(3-(2-thienyl)pyrrolidino-1-methyl) tetralin hydrochloride], the affinity corresponds to a Ki of 4.9 nM and the “alpha-2 - Selectivity Ki alpha-1/Ki alpha 2” value is listed as 35.

For the compound `CN(CCc1cccs1)CC1CCCc2c1ccc1c2OCO1` (centres unmarked) [Example 23, 1-((N-Methylamino)methyl-N-(2-(2-thienyl)ethyl))-5,6-methylenedioxy tetralin hydrochloride], affinity was put at a Ki of 1.7 nM and the “alpha-2 - Selectivity Ki alpha-1/Ki alpha 2” value came out at 262.

As to `COc1ccc2c(c1)CCC2CN(C)CCc1cccs1` (centres unmarked) [Example 37, 1-((N-Methylamino)methyl-N-(2-(2-thienyl)ethyl))-5-methoxy indane hydrochloride], the Ki is 3.7 nM and the “alpha-2 - Selectivity Ki alpha-1/Ki alpha 2” value was 174.

For the compound `CN(CCc1cccs1)CC1CCCc2c1ccc(O)c2I` (centres unmarked) [Example 115, 1-((N-Methylamino)methyl-N-(2-(2-thienyl)ethyl))-5-iodo-6-hydroxy tetralin hydrochloride], the affinity corresponds to a Ki of 3 nM and the “alpha-2 - Selectivity Ki alpha-1/Ki alpha 2” value was 177.
